# Laboratory results as given in patent US7081485B2, “Non-volatile dental compositions containing multifunctional acrylate compounds and lacking an oxygen-inhibited layer” (Bisco, Inc., priority 2002, dated 2006).
# Test: Initiator absorptivity, 400–500 nm in acetonitrile
# Assay type: physicochemical
# Conditions: normalized by mass
# Method: The absorptivity is the absorbance in the range of 400–500 nm in acetonitrile normalized by mass. The higher the value, the higher the absorption in the visible light range. The first three initiators undergo unimolecular bond cleavage upon irradiation. The last three initiators require a co-initiator, such as an amine, to undergo a bimolecular reaction. The initiators (and EDMAB amine if required) were added to the resin. Samples were coated on a white mixing pad, evaporated for greater than 60 seconds, and irradiated at 500 mW/cm^2 using a Bisco VIP light curing system. Samples were irradiated for 5 seconds, 10 seconds, 30 seconds, and 10 seconds in the absence of air. The “no air” cure was performed between two Mylar slips, each 0.25 mm thick. The actual concentration of initiator in the resin was double that shown in the table due to the evaporation of the acetone.
row,SMILES,Absorbance × 10^−3
1,"CC12CCC(C(=O)C1=O)C2(C)C (stereo not drawn) [CQ, camphorquinone]",11 × 10^−3
2,"Cc1cc(C)c(C(=O)P(=O)(C(=O)c2c(C)cc(C)cc2C)c2ccccc2)c(C)c1 [Composition 819, bis(2,4,6-trimethylbenzoyl)-phenylphosphineoxide]",23 × 10^−3
3,"CCCCOc1ccc2cc3cc(I)c(=O)c(I)c-3oc2c1 [HNu, 5,7-diiodo-3-butoxy-6-fluorone]",2960 × 10^−3
4,"O=C1C(=O)c2ccccc2-c2ccccc21 [PAQ, phenanthrenequinone]",466 × 10^−3
5,"Cc1cc(C)c(C(=O)P(=O)(c2ccccc2)c2ccccc2)c(C)c1 [TPO, 2,4,6-trimethylbenzoyl-diphenylphosphinate]",6 × 10^−3
6,"CCOP(=O)(C(=O)c1c(C)cc(C)cc1C)c1ccccc1 (stereo not drawn) [TPOL, ethyl-2,4,6-trimethylbenzoyl-phenylphosphinate]",4 × 10^−3
